Paper PMC12153338, “Resistance to oxyimino-cephalosporins conferred by an alternative mechanism of hydrolysis by the Acinetobacter-derived cephalosporinase-33 (ADC-33), a class C β-lactamase present in carbapenem-resistant Acinetobacter baumannii (CRAb)” (mBio, 2025)
Values after ≈ are worked out from the molar mass of the structure shown.

Assays:
[1] = tested on: DH10B Escherichia coli pBCSK− no insert; experiment: MIC by broth microdilution, DH10B E. coli with pBCSK− no insert; assay type: cell-based; conditions: DH10B E. coli with pBCSK− no insert (control strain), FDC in iron-depleted cation-adjusted MH broth
Method: (§1) Susceptibility testing to standard antibiotics was performed by broth microdilution according to 2024 Clinical and Laboratory Standards Institute (CLSI) guidelines ([38]). MICs for FDC were done in iron-depleted cation-adjusted Mueller-Hinton (MH) broth according to CLSI methods. All MICs were interpreted according to the 2024 CLSI guidelines ([38]). MICs are done in triplicate, and the mode MIC value is reported.
(§2) blaADC-7 pBCSK− was cloned and expressed in E. coli DH10B cells as previously described for MIC determinations ([3]). The pBCSK-non-inducible phagemid vector has a chloramphenicol resistance gene used to aid selection. All other blaADC variants were synthesized by GenScript according to the blaADC-7 pBCSK− strategy, cloning into the XbaI/BamHI sites of the pBCSK− vector ([5]).

[2] = tested on: ADC-172 in DH10B Escherichia coli; experiment: MIC by broth microdilution, ADC-172 in DH10B E. coli; assay type: cell-based; conditions: for MIC: Escherichia coli, DH10B E. coli expressing ADC-172 (Adup) from pBCSK−, FDC in iron-depleted cation-adjusted MH broth, mode of triplicate, read-out: MIC
Method: as §1, §2

[3] = tested on: DH10B alone; experiment: MIC by broth microdilution, DH10B alone; assay type: cell-based; conditions: Escherichia coli; DH10B alone (control strain); FDC in iron-depleted cation-adjusted MH broth
Method: as §1, §2

[4] = tested on: ADC-217 in DH10B Escherichia coli; experiment: MIC by broth microdilution, ADC-217 in DH10B E. coli; assay type: cell-based; conditions: DH10B E. coli expressing ADC-217 (non-Adup) from pBCSK−, FDC in iron-depleted cation-adjusted MH broth, mode of triplicate
Method: as §1, §2

[5] = tested on: ADC-30 in DH10B Escherichia coli; experiment: MIC by broth microdilution, ADC-30 in DH10B E. coli; assay type: cell-based; conditions: DH10B E. coli expressing ADC-30 (non-Adup) from pBCSK−, FDC in iron-depleted cation-adjusted MH broth, mode of triplicate
Method: as §1, §2

[6] = tested on: ADC-33 in DH10B Escherichia coli; experiment: MIC by broth microdilution, ADC-33 in DH10B E. coli; assay type: cell-based; conditions: DH10B E. coli expressing ADC-33 (Adup) from pBCSK−, FDC in iron-depleted cation-adjusted MH broth, mode of triplicate
Method: as §1, §2

[7] = tested on: ADC-143 in DH10B Escherichia coli; experiment: MIC by broth microdilution, ADC-143 in DH10B E. coli; assay type: cell-based; conditions: DH10B E. coli expressing ADC-143 (non-Adup) from pBCSK−, FDC in iron-depleted cation-adjusted MH broth, mode of triplicate
Method: as §1, §2

[8] = tested on: ADC-7 in DH10B Escherichia coli; experiment: MIC by broth microdilution, ADC-7 in DH10B E. coli; assay type: cell-based; conditions: DH10B E. coli expressing ADC-7 (non-Adup) from pBCSK−, FDC in iron-depleted cation-adjusted MH broth, mode of triplicate
Method: as §1, §2

[9] = tested on: ADC-219 in DH10B Escherichia coli; experiment: MIC by broth microdilution, ADC-219 in DH10B E. coli; assay type: cell-based; conditions: DH10B E. coli expressing ADC-219 (Adup) from pBCSK−, FDC in iron-depleted cation-adjusted MH broth, mode of triplicate
Method: as §1, §2

[10] = target: ADC-217 (Acinetobacter baumannii, UniProt Q6DRA1, V286E, form not given); experiment: Steady-state hydrolysis kinetics, ADC-217; assay type: biochemical; conditions: hydrolysis by ADC-217
Method: Steady-state kinetic parameters were determined by combining pure enzyme with antibiotic substrates in 50 mM NaH2PO4, pH 7.4, at room temperature. Changes in absorbance were measured on the Cary 60 UV−Vis spectrophotometer (Agilent Technologies) and converted to velocity using the change in extinction coefficient specific to nitrocefin (NCF) (ε482 = 17,400 M^−1·cm^−1), CAZ (ε260 8,660 M^−1·cm^−1), and cefiderocol (ε259 9,430 M^−1·cm^−1). The concentration of enzyme ranged from 0.1 to 1.0 µM, and all kinetic experiments were performed at least in triplicate. Initial velocities were fitted to the Michaelis-Menten equation, yielding kcat and KM values. The standard error for kcat/KM values was generated by factoring in the larger of the proportional standard errors for the individual kcat value and the KM value. For ADC/substrate combinations in which the KM was too large to accurately determine both kcat and KM values, the initial velocities at kcat/KM values were calculated from linear fits of vo in low [S] ranges (<0.08 * KM).

[11] = tested on: ADC-218 in DH10B Escherichia coli; experiment: MIC by broth microdilution, ADC-218 in DH10B E. coli; assay type: cell-based; conditions: DH10B E. coli expressing ADC-218 (Adup) from pBCSK−, FDC in iron-depleted cation-adjusted MH broth, mode of triplicate
Method: as §1, §2

[12] = tested on: ADC-73 in DH10B Escherichia coli; experiment: MIC by broth microdilution, ADC-73 in DH10B E. coli; assay type: cell-based; conditions: DH10B E. coli expressing ADC-73 (non-Adup) from pBCSK−, FDC in iron-depleted cation-adjusted MH broth, mode of triplicate
Method: as §1, §2

Structure (SMILES) | MIC [1] [µg/mL] | fold increase in MIC from ADC-30 to ADC-172 ([2]; DH10B E. coli, ADC-172 versus ADC-30) [fold] | MIC [2] [µg/mL] | MIC [3] [µg/mL] | MIC [4] [µg/mL] | MIC [5] [µg/mL] | MIC [6] [µg/mL] | MIC [7] [µg/mL] | MIC [8] [µg/mL] | MIC [9] [µg/mL] | Km [10] [µM] | kcat [10] [s⁻¹] | MIC [11] [µg/mL] | MIC [12] [µg/mL]
C[C@@H](O)[C@H]1C(=O)N2C(C(=O)O)=C(SCCN=CN)C[C@H]12 [IPM, imipenem] | 0.25 (≈ 0.835 µM) |  |  |  |  |  |  |  |  |  |  |  |  | 
CO/N=C(\C(=O)N[C@@H]1C(=O)N2C(C(=O)[O-])=C(C[N+]3(C)CCCC3)CS[C@H]12)c1csc(N)n1 [FEP, cefepime] | 0.03 (≈ 0.0624 µM) | ≤ 16 | 8 (≈ 16.6 µM) | 0.06 (≈ 0.125 µM) | 16 (≈ 33.3 µM) | 0.5 (≈ 1.04 µM) | 1 (≈ 2.08 µM) | 0.25 (≈ 0.52 µM) | 0.5 (≈ 1.04 µM) | 0.125 (≈ 0.26 µM) | 155 | 30.2 | 4 (≈ 8.32 µM) | 0.25 (≈ 0.52 µM)
CO/N=C(\C(=O)N[C@@H]1C(=O)N2C(C(=O)O)=C(COC(C)=O)CS[C@H]12)c1csc(N)n1 [CTX, cefotaxime] | 0.06 (≈ 0.132 µM) |  | 32 (≈ 70.3 µM) | 0.12 (≈ 0.263 µM) | 64 (≈ 141 µM) | 32 (≈ 70.3 µM) | 64 (≈ 141 µM) | 32 (≈ 70.3 µM) | 64 (≈ 141 µM) | 32 (≈ 70.3 µM) |  |  | 256 (≈ 562 µM) | 32 (≈ 70.3 µM)
